Assay results as given in patent EP2264010A1, “Hetarylamidines” (Bayer CropScience AG, priority 2009, dated 2010).

What was measured:
LOLMU = assay: Herbicidal activity, test type PE; format: in vivo; conditions: TEST-TYP PE, read-out: herbizide Wirkung LOLMU
ECHCG = assay: Herbicidal activity, test type PE; format: in vivo; conditions: TEST-TYP PE, 320 G/HA
SETVI = assay: Herbicidal activity, test type PE; format: in vivo; conditions: TEST-TYP PE; for pest or weed control at 320 g/ha: read-out: herbizide Wirkung SETVI; for herbizide Wirkung SETVI: 320 G/HA
AMARE [1] = assay: Herbicidal activity, test type PE; format: in vivo; conditions: TEST-TYP PE; for pest or weed control at 320 g/ha: Amaranthus retroflexus, read-out: herbizide Wirkung AMARE; for herbizide Wirkung AMARE: 320 G/HA
VIOTR [2] = assay: Herbicidal activity, test type PE; format: in vivo; conditions: TEST-TYP PE; for pest or weed control at 320 g/ha: read-out: herbizide Wirkung VIOTR; for herbizide Wirkung VIOTR: 320 G/HA
MATIN = assay: Herbicidal activity, test type PE; format: in vivo; conditions: TEST-TYP PE; for pest or weed control at 320 g/ha: read-out: herbizide Wirkung MATIN; for herbizide Wirkung MATIN: 320 G/HA
STEME = assay: Herbicidal activity, test type PE; format: in vivo; conditions: TEST-TYP PE, read-out: herbizide Wirkung STEME
VERPE [3] = assay: Herbicidal activity, test type PE; format: in vivo; conditions: TEST-TYP PE; for pest or weed control at 320 g/ha: read-out: herbizide Wirkung VERPE
[4] = logP by HPLC on reversed-phase columns (C 18), EEC Directive 79/831 Annex V.A8; format: physicochemical; conditions: c18 reversed-phase hplc, reversed-phase (C 18), read-out: log p
From the text: Die Messung der logP Werte erfolgte gemäß EEC Directive 79/831 Annex V.A8 durch HPLC (High Performance Liquid Chromatography) an reversed-phase Säulen (C 18), mit der nachfolgenden Methode: […]

VERPE [5] = assay: Herbicidal activity, test type PO; format: in vivo; conditions: TEST-TYP PO, 80 G/HA
PHBPU = assay: Herbicidal activity, test type PO; format: in vivo; conditions: TEST-TYP PO, 80 G/HA
AMARE [6] = assay: Herbicidal activity, test type PO; format: in vivo; conditions: TEST-TYP PO, 80 G/HA
ALOMY = assay: Herbicidal activity, test type PE; format: in vivo; conditions: TEST-TYP PE, 320 G/HA
VIOTR [7] = assay: Herbicidal activity, test type PO; format: in vivo; conditions: TEST-TYP PO, 80 G/HA

## CCN(C)C=Nc1ncc(-c2cccc(C(F)(F)F)c2)cc1C [compound 77]
LOLMU
  pest or weed control at 320 g/ha: 90%
ECHCG
  herbizide Wirkung ECHCG: 90
SETVI
  pest or weed control at 320 g/ha: 90%
AMARE [1]
  pest or weed control at 320 g/ha: 80%

## CCN(C)C=Nc1ncc(Cl)cc1-c1ccc(Cl)c(C(F)(F)F)c1 [compound 4]
VIOTR [2]
  pest or weed control at 320 g/ha: 80%
SETVI
  pest or weed control at 320 g/ha: 90%
AMARE [1]
  pest or weed control at 320 g/ha: 90%

## Cc1cccc(-c2cnc(N=CN(C)C)c(C)c2)c1 [compound 106]
VIOTR [2]
  pest or weed control at 320 g/ha: 80%
MATIN
  pest or weed control at 320 g/ha: 80%

## Cc1cc(-c2ccc(Cl)c(C(F)(F)F)c2)cnc1N=CN(C)C [compound 59]
VIOTR [2]
  pest or weed control at 320 g/ha: 80%
STEME
  pest or weed control at 320 g/ha: 80%
VERPE [3]
  pest or weed control at 320 g/ha: 80%
AMARE [1]
  pest or weed control at 320 g/ha: 80%
MATIN
  pest or weed control at 320 g/ha: 80%

## CCN(C)C=Nc1ncc(Br)cc1-c1ccc(Cl)c(C(F)(F)F)c1 [compound 17]
[4]
  chromatographic logP: 3.09

## Cc1cnc(N=CN(C)C)c(-c2ccc(F)c(C(F)(F)F)c2)c1 [compound 19]
[4]
  chromatographic logP: 1.33

## Fc1ccc(-c2cc(Cl)cnc2N=CN2CCCC2)cc1C(F)(F)F [compound 141]
SETVI
  herbizide Wirkung SETVI: 80
AMARE [1]
  pest or weed control at 320 g/ha: 80%

## CC(C)N(C=Nc1ncc(Cl)cc1-c1ccc(Cl)c(C(F)(F)F)c1)C(C)C [compound 12]
[4]
  chromatographic logP: 3.71

## Cc1cnc(N=CN2CCCC2)c(-c2ccc(F)c(C(F)(F)F)c2)c1 [compound 25]
SETVI
  pest or weed control at 320 g/ha: 80%
AMARE [1]
  pest or weed control at 320 g/ha: 80%
[4]
  chromatographic logP: 1.46

## CCN(C=Nc1ncc(Cl)cc1-c1ccc(F)c(C(F)(F)F)c1)CC [compound 140]
VERPE [5]
  herbizide Wirkung VERPE: 80
PHBPU
  herbizide Wirkung PHBPU: 80
AMARE [6]
  herbizide Wirkung AMARE: 80
SETVI
  herbizide Wirkung SETVI: 80
MATIN
  herbizide Wirkung MATIN: 80

## CCN(C=Nc1ncc(C)cc1-c1ccc(Cl)c(C(F)(F)F)c1)CC [compound 7]
[4]
  chromatographic logP: 1.75

## CCN(C)C=Nc1ncc(C)cc1-c1ccc(F)c(C(F)(F)F)c1 [compound 142]
STEME
  pest or weed control at 320 g/ha: 90%
VERPE [3]; 320 G/HA
  herbizide Wirkung VERPE: 90
SETVI
  herbizide Wirkung SETVI: 90
AMARE [1]
  herbizide Wirkung AMARE: 80
MATIN
  pest or weed control at 320 g/ha: 80%

## CCN(C)C=Nc1ncc(C)cc1-c1cccc(C(F)(F)F)c1 [compound 32]
VIOTR [2]
  pest or weed control at 320 g/ha: 80%
VERPE [3]
  pest or weed control at 320 g/ha: 80%
SETVI
  pest or weed control at 320 g/ha: 90%
AMARE [1]
  pest or weed control at 320 g/ha: 80%
MATIN
  pest or weed control at 320 g/ha: 90%

## CC(=Nc1ncc(C)cc1-c1ccc(Cl)c(C(F)(F)F)c1)N(C)C [compound 9]
[4]
  chromatographic logP: 0.87

## CCN(C)C=Nc1ncc(-c2ccc(F)c(C(F)(F)F)c2)cc1C [compound 66]
VIOTR [2]
  pest or weed control at 320 g/ha: 90%
ALOMY
  herbizide Wirkung ALOMY: 80
PHBPU
  herbizide Wirkung PHBPU: 80
LOLMU
  pest or weed control at 320 g/ha: 90%
STEME
  pest or weed control at 320 g/ha: 90%
ECHCG
  herbizide Wirkung ECHCG: 90
VERPE [3]
  pest or weed control at 320 g/ha: 90%
VIOTR [7]
  herbizide Wirkung VIOTR: 80
SETVI
  pest or weed control at 320 g/ha: 100%
AMARE [1]
  pest or weed control at 320 g/ha: 90%
MATIN
  pest or weed control at 320 g/ha: 90%

## CCN(C)C=Nc1ncc(-c2cccc(C)c2)cc1C [compound 105]
ECHCG
  herbizide Wirkung ECHCG: 80
SETVI
  pest or weed control at 320 g/ha: 80%

## CCN(C=Nc1ncc(Cl)cc1-c1ccc(F)c(C(F)(F)F)c1)CC [compound 15]
VERPE [5]
  herbizide Wirkung VERPE: 80
AMARE [6]
  herbizide Wirkung AMARE: 90
STEME
  pest or weed control at 320 g/ha: 80%
VIOTR [7]
  herbizide Wirkung VIOTR: 80
SETVI
  pest or weed control at 320 g/ha: 80%
AMARE [1]
  pest or weed control at 320 g/ha: 80%
[4]
  chromatographic logP: 2.59
MATIN
  pest or weed control at 320 g/ha: 80%

## Cc1cc(-c2ccc(F)c(C(F)(F)F)c2)cnc1N=CN(C)C [compound 181]
VIOTR [2]
  herbizide Wirkung VIOTR: 90
VERPE [5]
  herbizide Wirkung VERPE: 80
PHBPU
  herbizide Wirkung PHBPU: 90
AMARE [6]
  herbizide Wirkung AMARE: 80
AMARE [1]
  herbizide Wirkung AMARE: 100
MATIN
  herbizide Wirkung MATIN: 90

## CCN(C)C=Nc1ncc(C)cc1-c1ccc(Cl)c(C(F)(F)F)c1 [compound 127]
VIOTR [2]
  herbizide Wirkung VIOTR: 80
SETVI
  herbizide Wirkung SETVI: 90
AMARE [1]
  pest or weed control at 320 g/ha: 90%
MATIN
  pest or weed control at 320 g/ha: 80%

## Cc1cnc(N=CN(C(C)C)C(C)C)c(-c2ccc(Cl)c(C(F)(F)F)c2)c1 [compound 8]
[4]
  chromatographic logP: 2.03

## Cc1cc(-c2ccc(Cl)c(Cl)c2)cnc1N=CN(C)C [compound 95]
VIOTR [2]
  pest or weed control at 320 g/ha: 80%
SETVI
  pest or weed control at 320 g/ha: 80%
